Source: patent US20230398080A1, “FLOATING DRUG DELIVERY SYSTEMS COMPRISING CANNABINOIDS” (YISSUM RESEARCH DEVELOPMENT COMP ANY OF THE HEBREW …, priority 2020, published 2023)

Experiment: THC-CBD-Metoprolol intra-colon vs oral administration in the freely moving rat model
Settings: for absorption through the colon in comparison to PO administration: lipid-based self-nano emulsifying formulation via colonic cannula vs PO, CBD 15 mg/kg, THC 20 or 10 mg/kg

C=C(C)[C@@H]1CCC(C)=C[C@H]1c1c(O)cc(CCCCC)cc1O [CBD, cannabidiol]
absorption through the colon in comparison to PO administration: practically not absorbed through the colon

COCCc1ccc(OCC(O)CNC(C)C)cc1 (stereo not drawn) [Metoprolol]
AUC after administration through the colon in comparison to PO administration (colonic cannula vs PO, metoprolol 20 or 15 mg/kg): approximately 4 fold

CCCCCc1cc(O)c2c(c1)OC(C)(C)[C@@H]1CCC(C)=C[C@@H]21 [THC, tetrahydrocannabinol]
absorption through the colon in comparison to PO administration: practically not absorbed through the colon
